Laboratory results taken from patent US4314999A, “N-Acyl derivatives of glucosamine having antitumor chemotherapeutic acitivity” (Proter S.p.A., priority 1980, dated 1982).

System: Leukemia L 1210
Test: Survival (MST, ILS, T/C%) of mice inoculated i.p. with Leukemia L 1210, compound given orally
Type: in vivo
Parameters: Increase in Life Span (ILS): unit not given here
Details: for Survivors: of 10 mice
Procedure: The chemotherapeutic activity of the compound ethyl-D-glucosamyl-L-aspartoyl(β-ethoxy)-D-glucosamyl)m-di(2-chloroethylamino)-L-phenylalanyl-p-fluoro-L-phenylalanine was evaluated by conducting trials on mice injected with cells of Leukemia 1210 according to the procedure established in Cancer Chemotherapy Reports 1972, Vol. 3, No. 2: Protocols for Screening Chemical Agents and Natural Products Against Animal Tumors and other Biological Systems (Third Edition, National Cancer Institute, Bethesda, Maryland. The experimental model employed for the evaluation is:
Determination of the MST (Mean Survival Time) of BDGI mice inoculated intraperitoneally with 10^5 cells of lymphoid Leukenia L 1210 deriving from regular implants in DBA2 mice. The MST was determined both on the controls and on the animals treated, and thereafter an evaluation was made of the ILS (Increased Life Span) according to Cancer Chemotherapy Reports 1972, Vol. 3, No. 2 (Protocols for Screening Chemical Agents and Natural Products Against Animal Tumors and other Biological Systems--Third Edition, National Cancer Institute, Bethesda, Maryland). In this case, the compounds were tested only after oral administration starting from the 3rd day after implant of the tumor and continuing on the 17th, 25th and 35th day. On the 52nd day, any surviving animals were sacrificed and the experiment discontinued and evaluated.
The formula for the calculation of mean survival time is: [formula] wherein Day A=Day on which deaths are no longer considered due to drug toxicity - For Leukemia L 1210 day A=day 6
Day B=This day cannot be considered here because all control animals died within the 11th day and survivors were not observed.
S=The total of survivors from 6th day onwards
S(A-1)=Number of survivors at the end of day 5 (A-1)=S5
The ILS and the ratio T/C% are calcuated as follows: […]

[1] = Table, oral 25, 15, 10, 5 mg/Kg on days 3, 17, 25, 35, L 1210 mice

Ethyl-D-glucosamyl-L-aspartoyl(β-ethoxy)-D-glucosamyl-m-di-(2-chloroethyl)amino-L-phenylalanyl-p-fluoro-phenylalanine
10: Survivors (day 3 from inoculum, oral 25 mg/Kg given this day) | Survivors (day 4 from inoculum) | Survivors (day 5 from inoculum) | Survivors (day 6 from inoculum) | Survivors (day 7 from inoculum) | Survivors (day 8 from inoculum) | Survivors (day 9 from inoculum) | Survivors (day 10 from inoculum) | Survivors (day 11 from inoculum) | Survivors (day 12 from inoculum) | Survivors (day 13 from inoculum) | Survivors (day 14 from inoculum) | Survivors (day 15 from inoculum) | Survivors (day 16 from inoculum) | Survivors (day 17 from inoculum, oral 15 mg/Kg given this day) | Survivors (day 18 from inoculum)
32.7: M.S.T. [1]
0: Survivors (day 52 from inoculum)
8: Survivors (day 19 from inoculum) | Survivors (day 20 from inoculum)
4: Survivors (day 34 from inoculum) | Survivors (day 35 from inoculum, oral 5 mg/Kg given this day) | Survivors (day 36 from inoculum) | Survivors (day 37 from inoculum) | Survivors (day 38 from inoculum) | Survivors (day 39 from inoculum)
2: Survivors (day 42 from inoculum) | Survivors (day 43 from inoculum) | Survivors (day 44 from inoculum) | Survivors (day 45 from inoculum) | Survivors (day 46 from inoculum) | Survivors (day 47 from inoculum) | Survivors (day 48 from inoculum)
5: Survivors (day 30 from inoculum) | Survivors (day 31 from inoculum) | Survivors (day 32 from inoculum) | Survivors (day 33 from inoculum)
6: Survivors (day 21 from inoculum) | Survivors (day 22 from inoculum) | Survivors (day 23 from inoculum) | Survivors (day 24 from inoculum) | Survivors (day 25 from inoculum, oral 10 mg/Kg given this day) | Survivors (day 26 from inoculum) | Survivors (day 27 from inoculum) | Survivors (day 28 from inoculum) | Survivors (day 29 from inoculum)
3: Survivors (day 40 from inoculum) | Survivors (day 41 from inoculum)
1: Survivors (day 49 from inoculum) | Survivors (day 50 from inoculum) | Survivors (day 51 from inoculum)
186.4: I.L.S. [1] | Increase in Life Span (ILS) (ten mice, 10^5 L 1210 cells i.p., oral 25, 15, 10, 5 mg/kg on days 3, 17, 25, 35, calculated as 311.4-125)
32.7 days: Mean Survival Time (MST) (ten mice, 10^5 L 1210 cells i.p., oral 25, 15, 10, 5 mg/kg on days 3, 17, 25, 35)
311.4%: T/C % [1] | T/C% (MST of the treated group divided by the MST of the control group) (ten mice, 10^5 L 1210 cells i.p., oral 25, 15, 10, 5 mg/kg on days 3, 17, 25, 35, control MST 10.5)
